According to patent publication US20260226084A1, “DUAL RAF AND TUBULIN INHIBITORS AND METHODS OF USE THEREOF” (Deciphera Pharmaceuticals, LLC, priority 2023, published 2026):

What was measured:
HPAF-II cells = experiment: HPAF-II Cell Proliferation Assay; format: cell-based; settings: Homo sapiens, HPAF-II, HPAF-II cells; Table 2; read-out: Inhibition of cell proliferation in HPAF-II (IC50 class)
Description: (§1) HPAF-II cells (catalog #CRL-1997) are obtained from the American Type Culture Collect (ATCC, Manassas, VA). Briefly, cells are grown in Minimum Essential Media supplemented with 10% characterized fetal bovine serum (Invitrogen, Carlsbad, CA) and 1% Penicillin/Streptomycin/L-Glutamine at 37° C., 5% CO2, and 95% humidity. Cells are expanded until reaching 70-95% confluency at which point they are sub-cultured or harvested for assay use. A serial dilution of test compound is dispensed into a 384-well black clear bottom plate in triplicate. 750 cells are added per well in 50 μL complete growth medium in the 384-well plate. Plates are incubated for 115 to 120 hours at 37° C., 5% CO2, and 95% humidity. At the end of the incubation, 40 μL of a 440 μM solution of resazurin (Sigma, St. Louis, MO) in PBS is added to each well of the plate and plates are incubated for an additional 18 to 24 hours at 37° C., 5% CO2, and 95% humidity. Plates are read on a Synergy2 or equivalent reader (Biotek, Winooski, VT) using an excitation of 540 nm and an emission of 600 nm. Data is analyzed using Prism software (Graphpad, San Diego, CA) to calculate IC50 values.

Pa16c cells = experiment: Pa16c Cell Proliferation Assay; format: cell-based; settings: Table 2, read-out: Inhibition of cell proliferation in Pa16c (IC50 class)
Description: as §1, with “Pa16c” for “HPAF-II”, “cells” for “cells (catalog #CRL-1997)”, “Dr. Channing Der, University of North Carolina at Chapel Hill.” for “the American Type Culture Collect (ATCC, Manassas, VA).”, “Dulbecco's Modified Eagle Medium” for “Minimum Essential Media”, “67” for “115”, “72 h” for “120 hours”

MiaPaca-2 cells = experiment: MiaPaca-2 Cell Proliferation Assay; format: cell-based; settings: Homo sapiens, MIA PaCa-2, MiaPaca-2 cells; Table 2; read-out: Inhibition of cell proliferation in MiaPaca-2 (IC50 class)
Description: Miapaca-2 cells (catalog #CRL-1420) are obtained from the American Type Culture Collect (ATTC, Manassas, VA). Briefly, cells were grown in DMVEM supplemented with 10 characterized fetal bovine serum (Invitrogen, Carlsbad, CA), 2.5% New Zealand sourced horse serum and 1 Penicillin/Streptomycin/L-Glutamine at 37° C., 5 CO2, and 95% humidity. Cells are expanded until reaching 70-95% confluency at which point they are sub-cultured or harvested for assay use. A serial dilution of test compound is dispensed into a 96-well black clear bottom plate in triplicate. Three thousand cells are added per well in 200 μL complete growth medium in the 96-well plate. Plates are incubated for 67 to 72 h at 37° C., 5% CO2, and 95% humidity. At the end of the incubation, 40 μL of a 440 μM solution of resazurin (Sigma, St. Louis, MO) in PBS is added to each well of the plate and plates are incubated for an additional 5 to 6 h at 37° C., 5% CO2, and 95% humidity. Plates are read on a Synergy2 or equivalent reader (Biotek, Winooski VT) using an excitation of 540 nm and an emission of 600 nm. Data is analyzed using Prism software (Graphpad, San Diego, CA) to calculate IC50 values.

HCT-116 cells = experiment: HCT-116 Cell Proliferation Assay; format: cell-based; settings: Homo sapiens, HCT-116, HCT-116 cells; Table 2; read-out: Inhibition of cell proliferation in HCT-116 (IC50 class)
Description: HCT-116 cells (catalog #CCL-247) are obtained from the American Type Culture Collect (ATCC, Manassas, VA). Briefly, cells are grown in McCoy's 5A supplemented with 10% characterized fetal bovine serum (Invitrogen, Carlsbad, CA) and 1% Penicillin/Streptomycin/L-Glutamine at 37° C., 5% CO2, and 95% humidity. Cells are expanded until reaching 70-95% confluency at which point they are subcultured or harvested for assay use. A serial dilution of test compound is dispensed into a 384-well black clear bottom plate in triplicate. 375 cells are added per well in 50 μL complete growth medium in the 384-well plate. Plates are incubated for 67 to 72 hours at 37° C., 5% CO2, and 95% humidity. At the end of the incubation, 40 μL of a […] solution of resazurin (Sigma, St. Louis, MO) in PBS is added to each well of the plate and plates are incubated for an additional 4 to 5 h at 37° C., 5% CO2, and 95% humidity. Plates are read on a Synergy2 or equivalent reader (Biotek, Winooski, VT) using an excitation of 540 nm and an emission of 600 nm. Data is analyzed using Prism software (Graphpad, San Diego, CA) to calculate IC50 values.

[1] = biological target: T1, B-Raf kinase (SEQ ID NO: 1) (Homo sapiens, UniProt P15056); experiment: Biochemical Assay for B-Raf (coupled pyruvate kinase/lactate dehydrogenase assay); settings: 1 mM ATP; read-out: BRAF (inhibition of biochemical activity, IC50)
T1 construct: GST (N); purchased Sigma

[2] = biological target: T2, C-Raf kinase (SEQ ID NO: 2) (Homo sapiens, UniProt P04049, Y340D/Y341D); experiment: Biochemical Assay for C-Raf (coupled pyruvate kinase/lactate dehydrogenase assay); settings: 1 mM ATP; read-out: CRAF (inhibition of biochemical activity, IC50)
T2 construct: C-Raf residues 306-end; Y340D, Y341D with; GST (N); purchased Sigma
T2 sequence (P04049 307-648 Y340D/Y341D): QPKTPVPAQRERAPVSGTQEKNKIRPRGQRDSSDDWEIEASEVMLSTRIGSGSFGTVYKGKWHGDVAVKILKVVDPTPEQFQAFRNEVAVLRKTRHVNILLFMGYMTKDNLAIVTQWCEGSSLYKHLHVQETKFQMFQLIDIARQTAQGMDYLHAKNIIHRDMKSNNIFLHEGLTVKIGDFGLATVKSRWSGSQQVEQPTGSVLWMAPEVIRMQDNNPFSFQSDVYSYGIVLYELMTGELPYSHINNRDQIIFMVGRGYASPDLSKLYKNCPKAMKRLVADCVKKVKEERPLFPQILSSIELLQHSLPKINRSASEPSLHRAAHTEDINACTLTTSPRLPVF

T1 sequence (P15056 416-766): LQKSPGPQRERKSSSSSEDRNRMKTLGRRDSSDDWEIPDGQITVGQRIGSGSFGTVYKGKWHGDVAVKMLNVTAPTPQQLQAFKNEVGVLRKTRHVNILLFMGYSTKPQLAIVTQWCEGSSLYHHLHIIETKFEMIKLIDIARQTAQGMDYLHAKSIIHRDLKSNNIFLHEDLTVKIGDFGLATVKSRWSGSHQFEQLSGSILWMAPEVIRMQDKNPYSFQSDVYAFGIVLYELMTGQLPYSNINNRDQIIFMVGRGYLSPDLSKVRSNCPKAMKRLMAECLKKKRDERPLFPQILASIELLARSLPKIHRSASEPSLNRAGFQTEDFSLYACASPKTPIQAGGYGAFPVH

Structure (SMILES)	IC50 (MiaPaca-2 cells)	IC50 (HCT-116 cells)	IC50 [1]	IC50 [2]	IC50 (HPAF-II cells)	IC50 (Pa16c cells)
CC(=O)Nc1cc(-c2cncc(-c3cc(NC(=O)c4ccc(C(F)F)nc4)ccc3C)n2)ccn1 [Example 26]	100 to 500 nM	100 to 500 nM	100 to 500 nM	100 to 500 nM	500 to 1000 nM	500 to 1000 nM
Cc1ccc(NC(=O)c2cc(C3CC3)cnn2)cc1-c1cc(-c2ccnc(NC(=O)C3CC3)c2)nc(NCCO)n1 [Example 15]	100 to 500 nM	< 100 nM	< 100 nM	< 100 nM	1000 to 10000 nM	1000 to 10000 nM
Cc1cc(-c2cc(NC(=O)c3cc(C(F)(F)F)cnn3)ccc2C)cc(-c2ccnc(NC(=O)C3CC3)c2)n1 [Example 18]	100 to 500 nM	100 to 500 nM	< 100 nM	< 100 nM	100 to 500 nM	100 to 500 nM
Cc1ccc(NC(=O)c2cnc(C(F)(F)F)nc2)cc1-c1ccnc(-c2cn[nH]c2)c1 [Example 126]	< 100 nM	< 100 nM	1000 to 10000 nM	1000 to 10000 nM	100 to 500 nM	100 to 500 nM
Cc1ccc(NC(=O)c2ccc(C(F)(F)F)nn2)cc1-c1ccnc(-c2ccnc(NC(=O)C3CC3)c2)c1 [Example 19]	100 to 500 nM	100 to 500 nM	100 to 500 nM	< 100 nM	100 to 500 nM	< 100 nM
CC(=O)Nc1cc(-c2cc(-c3cc(NC(=O)c4ccc(C(F)(F)F)nn4)ccc3C)ccn2)ccn1 [Example 13]	< 100 nM	< 100 nM	500 to 1000 nM	100 to 500 nM	< 100 nM	< 100 nM
Cc1ccc(NC(=O)c2cncc(C(F)(F)F)c2)cc1-c1ccnc(-c2ccnc(NC(=O)C3CC3)c2)c1 [Example 78]	500 to 1000 nM	100 to 500 nM	< 100 nM	< 100 nM	100 to 500 nM	1000 to 10000 nM
Cc1cnc(NC(=O)c2cc(C(F)(F)F)cnn2)cc1-c1ccnc(-c2ccnc(NC(=O)C3CC3)c2)c1 [Example 36]	1000 to 10000 nM	100 to 500 nM	< 100 nM	< 100 nM	1000 to 10000 nM	1000 to 10000 nM
Cc1ccc(NC(=O)c2cc(C3CCC3)cnn2)cc1-c1ccnc(-c2ccnc(NC(=O)C3CC3)c2)c1 [Example 44]	< 100 nM	< 100 nM	< 100 nM	< 100 nM	100 to 500 nM	< 100 nM
Cc1ccc(NC(=O)c2cncc(C(C)(C)C#N)c2)cc1-c1cncc(-c2ccnc(NC(=O)C3CC3)c2)n1 [Example 108]	100 to 500 nM	< 100 nM	< 100 nM	< 100 nM	100 to 500 nM	1000 to 10000 nM
Cc1cc(-c2cc(NC(=O)c3cc(C(F)(F)F)cnn3)cnc2C)cc(-c2ccnc(NC(=O)C3CC3)c2)n1 [Example 35]	1000 to 10000 nM	1000 to 10000 nM	< 100 nM	< 100 nM	1000 to 10000 nM	1000 to 10000 nM
Cc1cc(-c2cc(NC(=O)c3cncc(C(C)(F)F)c3)ccc2C)cc(-c2ccnc(NC(=O)C3CC3)c2)n1 [Example 16]	500 to 1000 nM	100 to 500 nM	< 100 nM	< 100 nM	1000 to 10000 nM	1000 to 10000 nM

Further lines, with some results ahead:

IC50 (MiaPaca-2 cells)	IC50 (HCT-116 cells)	IC50 [1]	IC50 [2]	Structure (SMILES)	IC50 (HPAF-II cells)	IC50 (Pa16c cells)
100 to 500 nM	100 to 500 nM	100 to 500 nM	< 100 nM	Cc1ccc(NC(=O)c2cc(C(C)(F)F)cnn2)cc1-c1ccnc(-c2cnsc2)c1 [Example 137]	100 to 500 nM	500 to 1000 nM
< 100 nM	< 100 nM	< 100 nM	< 100 nM	COCC(=O)Nc1cc(-c2cc(-c3cc(NC(=O)c4cc(C(F)(F)F)cnn4)ccc3C)ccn2)ccn1 [Example 48]	100 to 500 nM	< 100 nM
< 100 nM	100 to 500 nM	< 100 nM	< 100 nM	Cc1ccc(NC(=O)c2cc(C(F)(F)F)cnn2)cc1-c1ccnc(-c2ccnc(/N=C/N(C)C)c2)c1 [Example 37, (E)-N-(3-(2′-(((dimethylamino)methylene)amino)-[2,4′-bipyridin]-4-yl)-4-methylphenyl)-5-(trifluoromethyl)pyridazine-3-carboxamide]	1000 to 10000 nM	< 100 nM
100 to 500 nM	100 to 500 nM	100 to 500 nM	< 100 nM	Cc1ccc(NC(=O)c2cc(C(F)(F)F)cnn2)cc1-c1ccnc(-c2ccnc(NC(=O)C3(C)CC3)c2)c1 [Example 41]	1000 to 10000 nM	< 100 nM
< 100 nM	< 100 nM	1000 to 10000 nM	1000 to 10000 nM	Cc1ccc(NC(=O)c2cc(C(F)(F)F)cnn2)cc1-c1ccnc(-c2ccsc2)c1 [Example 146]	< 100 nM	< 100 nM
100 to 500 nM	100 to 500 nM	< 100 nM	< 100 nM	Cc1ccc(NC(=O)c2cc(C(C)(F)F)cnn2)cc1-c1ccnc(-c2cncn2C)c1 [Example 138]	100 to 500 nM	100 to 500 nM
< 100 nM	< 100 nM	100 to 500 nM	< 100 nM	Cc1ccc(NC(=O)c2cc(C(F)(F)F)cnn2)cc1-c1ccnc(-c2ccnc(NC(=O)C(F)(F)F)c2)c1 [Example 106]	< 100 nM	< 100 nM
< 100 nM	< 100 nM	< 100 nM	< 100 nM	Cc1ccc(NC(=O)c2cc(C(F)(F)F)cnn2)cc1-c1ccnc(-c2ccnc(N)c2)c1 [Example 2, N-(3-(2′-amino-[2,4′-bipyridin]-4-yl)-4-methylphenyl)-5-(trifluoromethyl)pyridazine-3-carboxamide]	< 100 nM	< 100 nM
100 to 500 nM	100 to 500 nM	1000 to 10000 nM	1000 to 10000 nM	Cc1ccc(NC(=O)c2cc(C3CC3)cnn2)cc1-c1ccnc(-c2ccsc2)c1 [Example 144]	100 to 500 nM	100 to 500 nM
